From US6071916A, “HIV protease inhibitor” (priority 1998, dated 2000)
Where a name gives a salt, the structure may show the parent alone.

Columns and labels:
HIV protease = settings: assays described in WO 95/16688; cited from earlier work
[1] = hydrophobic/hydrophilic nature in formulation; assay type: physicochemical; settings: dispersion during formulation; HCl (dihydrate) requires wetting agents
[2] = oral absorption and bioavailability in animal models; assay type: in vivo

SMILES	inhibition of HIV protease (HIV protease)	hydrophobic or hydrophilic nature [1]	oral absorption ([2]; oral, animal models)	rate of absorption ([2]; compared with the existing HCl, HBr and methanesulfonate salts)	bioavailability ([2]; oral, animal models)
CC(C)(C)NC(=O)[C@@H]1CN(Cc2cc3ccccc3o2)CCN1C[C@@H](O)C[C@@H](Cc1ccccc1)C(=O)N[C@H]1c2ccccc2C[C@H]1O [Compound A, N-(2(R)-hydroxy-1(S)-indanyl)-2(R)-phenylmethyl-4-(S)-hydroxy-5-(1-(4-(2-benzo[b]furanylmethyl)-2(S)-N'-(t-butylcarboxamido)-piperazinyl))-pentaneamide]	potent inhibitor of HIV protease				
CC(C)(C)NC(=O)[C@@H]1CN(Cc2cc3ccccc3o2)CCN1C[C@@H](O)C[C@@H](Cc1ccccc1)C(=O)N[C@H]1c2ccccc2C[C@H]1O [HCl (dihydrate) salt, reference compound]		extremely hydrophobic	poor		
CC(C)(C)NC(=O)[C@@H]1CN(Cc2cc3ccccc3o2)CCN1C[C@@H](O)C[C@@H](Cc1ccccc1)C(=O)N[C@H]1c2ccccc2C[C@H]1O [sulfate salt]		hydrophilic	much greater	more rapidly absorbed than the existing HCl, HBr and methanesulfonate salts	much greater
